Experimental data published in ChEMBL document CHEMBL4665642, “Anticancer profile of newly synthesized BRAF inhibitors possess 5-(pyrimidin-4-yl)imidazo[2,1-b]thiazole scaffold” (Bioorg Med Chem, 2019).

Columns and labels:
Type in all cases: functional
Settings in all cases: read-out: Activity
COLO 205 = assay: Cytotoxicity against human COLO 205 cells assessed as cell viability at 10 uM incubated for 48 hrs by sulforhodamine B assay relative to control
MOLT-4 = assay: Cytotoxicity against human MOLT-4 cells assessed as cell viability at 10 uM incubated for 48 hrs by sulforhodamine B assay relative to control
M14 = assay: Cytotoxicity against human M14 cells assessed as cell viability at 10 uM incubated for 48 hrs by sulforhodamine B assay relative to control
MDA-MB-435 = assay: Cytotoxicity against human MDA-MB-435 cells assessed as cell viability at 10 uM incubated for 48 hrs by sulforhodamine B assay relative to control
UACC-62 = assay: Cytotoxicity against human UACC-62 cells assessed as cell viability at 10 uM incubated for 48 hrs by sulforhodamine B assay relative to control
EKVX = assay: Cytotoxicity against human EKVX cells assessed as cell viability at 10 uM incubated for 48 hrs by sulforhodamine B assay relative to control
U-251 = assay: Cytotoxicity against human U-251 cells assessed as cell viability at 10 uM incubated for 48 hrs by sulforhodamine B assay relative to control
PC-3 = assay: Cytotoxicity against human PC-3 cells assessed as cell viability at 10 uM incubated for 48 hrs by sulforhodamine B assay relative to control
HOP-92 = assay: Cytotoxicity against human HOP-92 cells assessed as cell viability at 10 uM incubated for 48 hrs by sulforhodamine B assay relative to control
HOP-62 = assay: Cytotoxicity against human HOP-62 cells assessed as cell viability at 10 uM incubated for 48 hrs by sulforhodamine B assay relative to control
Hs-578T = assay: Cytotoxicity against human HS-578T cells assessed as cell viability at 10 uM incubated for 48 hrs by sulforhodamine B assay relative to control
SW-620 = assay: Cytotoxicity against human SW-620 cells assessed as cell viability at 10 uM incubated for 48 hrs by sulforhodamine B assay relative to control
OVCAR-8 = assay: Cytotoxicity against human OVCAR-8 cells assessed as cell viability at 10 uM incubated for 48 hrs by sulforhodamine B assay relative to control
K562 = assay: Cytotoxicity against human K562 cells assessed as cell viability at 10 uM incubated for 48 hrs by sulforhodamine B assay relative to control
SNB-19 = assay: Cytotoxicity against human SNB-19 cells assessed as cell viability at 10 uM incubated for 48 hrs by sulforhodamine B assay relative to control
HL-60(TB) = assay: Cytotoxicity against human HL-60(TB) cells assessed as cell viability at 10 uM incubated for 48 hrs by sulforhodamine B assay relative to control
OVCAR-3 = assay: Cytotoxicity against human OVCAR-3 cells assessed as cell viability at 10 uM incubated for 48 hrs by sulforhodamine B assay relative to control
NCI-H226 = assay: Cytotoxicity against human NCI-H226 cells assessed as cell viability at 10 uM incubated for 48 hrs by sulforhodamine B assay relative to control
IGROV-1 = assay: Cytotoxicity against human IGROV-1 cells assessed as cell viability at 10 uM incubated for 48 hrs by sulforhodamine B assay relative to control
SN12C = assay: Cytotoxicity against human SN12C cells assessed as cell viability at 10 uM incubated for 48 hrs by sulforhodamine B assay relative to control
BT-549 = assay: Cytotoxicity against human BT-549 cells assessed as cell viability at 10 uM incubated for 48 hrs by sulforhodamine B assay relative to control
OVCAR-4 = assay: Cytotoxicity against human OVCAR-4 cells assessed as cell viability at 10 uM incubated for 48 hrs by sulforhodamine B assay relative to control
NCI-H522 = assay: Cytotoxicity against human NCI-H522 cells assessed as cell viability at 10 uM incubated for 48 hrs by sulforhodamine B assay relative to control
ACHN = assay: Cytotoxicity against human ACHN cells assessed as cell viability at 10 uM incubated for 48 hrs by sulforhodamine B assay relative to control
MDA-MB-468 = assay: Cytotoxicity against human MDA-MB-468 cells assessed as cell viability at 10 uM incubated for 48 hrs by sulforhodamine B assay relative to control
RPMI-8226 = assay: Cytotoxicity against human RPMI-8226 cells assessed as cell viability at 10 uM incubated for 48 hrs by sulforhodamine B assay relative to control
OVCAR-5 = assay: Cytotoxicity against human OVCAR-5 cells assessed as cell viability at 10 uM incubated for 48 hrs by sulforhodamine B assay relative to control
SR = assay: Cytotoxicity against human SR cells assessed as cell viability at 10 uM incubated for 48 hrs by sulforhodamine B assay relative to control
DU-145 = assay: Cytotoxicity against human DU-145 cells assessed as cell viability at 10 uM incubated for 48 hrs by sulforhodamine B assay relative to control
NCI-H23 = assay: Cytotoxicity against human NCI-H23 cells assessed as cell viability at 10 uM incubated for 48 hrs by sulforhodamine B assay relative to control
A549 = assay: Cytotoxicity against human A549 cells assessed as cell viability at 10 uM incubated for 48 hrs by sulforhodamine B assay relative to control
KM12 = assay: Cytotoxicity against human KM12 cells assessed as cell viability at 10 uM incubated for 48 hrs by sulforhodamine B assay relative to control
TK-10 = assay: Cytotoxicity against human TK-10 cells assessed as cell viability at 10 uM incubated for 48 hrs by sulforhodamine B assay relative to control
786-0 = assay: Cytotoxicity against human 786-0 cells assessed as cell viability at 10 uM incubated for 48 hrs by sulforhodamine B assay relative to control
SF-268 = assay: Cytotoxicity against human SF-268 cells assessed as cell viability at 10 uM incubated for 48 hrs by sulforhodamine B assay relative to control
NCI/ADR-RES = assay: Cytotoxicity against human NCI/ADR-RES cells assessed as cell viability at 10 uM incubated for 48 hrs by sulforhodamine B assay relative to control
CCRF-CEM = assay: Cytotoxicity against human CCRF-CEM cells assessed as cell viability at 10 uM incubated for 48 hrs by sulforhodamine B assay relative to control
SK-MEL-28 = assay: Cytotoxicity against human SK-MEL-28 cells assessed as cell viability at 10 uM incubated for 48 hrs by sulforhodamine B assay relative to control
NCI-H460 = assay: Cytotoxicity against human NCI-H460 cells assessed as cell viability at 10 uM incubated for 48 hrs by sulforhodamine B assay relative to control
MDA-MB-231 = assay: Cytotoxicity against human MDA-MB-231 cells assessed as cell viability at 10 uM incubated for 48 hrs by sulforhodamine B assay relative to control
SNB-75 = assay: Cytotoxicity against human SNB-75 cells assessed as cell viability at 10 uM incubated for 48 hrs by sulforhodamine B assay relative to control

SMILES: O=S(=O)(NCCNc1nccc(-c2c(-c3cccc(F)c3)nc3sccn23)n1)c1ccc(Br)cc1
- viability at 10 µM (COLO 205): 36.4%
- viability at 10 µM (MOLT-4): 35.7%
- viability at 10 µM (M14): 52.3%
- viability at 10 µM (MDA-MB-435): 21.3%
- viability at 10 µM (UACC-62): 35.8%
- viability at 10 µM (EKVX): 59.5%
- viability at 10 µM (U-251): 53.4%
- viability at 10 µM (PC-3): 51%
- viability at 10 µM (HOP-92): 76.7%
- viability at 10 µM (HOP-62): 83.3%
- viability at 10 µM (Hs-578T): 63.6%
- viability at 10 µM (SW-620): 54.8%
- viability at 10 µM (OVCAR-8): 45.5%
- viability at 10 µM (K562): 38.7%
- viability at 10 µM (SNB-19): 59.3%
- viability at 10 µM (HL-60(TB)): 90.5%
- viability at 10 µM (OVCAR-3): 62.4%
- viability at 10 µM (NCI-H226): 41.2%
- viability at 10 µM (IGROV-1): 8.47%
- viability at 10 µM (SN12C): 42.9%
- viability at 10 µM (BT-549): 63.2%
- viability at 10 µM (OVCAR-4): 47%
- viability at 10 µM (NCI-H522): 62.6%
- viability at 10 µM (ACHN): 30.2%
- viability at 10 µM (MDA-MB-468): 78.3%
- viability at 10 µM (RPMI-8226): 58%
- viability at 10 µM (OVCAR-5): 83.6%
- viability at 10 µM (SR): 31.7%
- viability at 10 µM (DU-145): 52.5%
- viability at 10 µM (NCI-H23): 72.6%
- viability at 10 µM (A549): 34.1%
- viability at 10 µM (KM12): 42.5%
- viability at 10 µM (TK-10): 68.8%
- viability at 10 µM (786-0): 50.6%
- viability at 10 µM (SF-268): 53%
- viability at 10 µM (NCI/ADR-RES): 61.8%
- viability at 10 µM (CCRF-CEM): 51%
- viability at 10 µM (SK-MEL-28): 69.1%
- viability at 10 µM (NCI-H460): 27.8%
- viability at 10 µM (MDA-MB-231): 69.7%
- viability at 10 µM (SNB-75): 75.3%

SMILES: O=C(NCCCNc1nccc(-c2c(-c3cccc(F)c3)nc3sccn23)n1)c1ccc(F)cc1
- viability at 10 µM (COLO 205): 64.7%
- viability at 10 µM (MOLT-4): 44.5%
- viability at 10 µM (M14): 85.3%
- viability at 10 µM (MDA-MB-435): 72.6%
- viability at 10 µM (UACC-62): 67.8%
- viability at 10 µM (EKVX): 82%
- viability at 10 µM (U-251): 90.6%
- viability at 10 µM (PC-3): 76.2%
- viability at 10 µM (HOP-92): 111%
- viability at 10 µM (HOP-62): 119%
- viability at 10 µM (Hs-578T): 83.2%
- viability at 10 µM (SW-620): 115%
- viability at 10 µM (OVCAR-8): 68.4%
- viability at 10 µM (K562): 75.7%
- viability at 10 µM (SNB-19): 89%
- viability at 10 µM (HL-60(TB)): 110%
- viability at 10 µM (OVCAR-3): 74.1%
- viability at 10 µM (NCI-H226): 69%
- viability at 10 µM (IGROV-1): 49.4%
- viability at 10 µM (SN12C): 75.8%
- viability at 10 µM (BT-549): 85.2%
- viability at 10 µM (OVCAR-4): 81.6%
- viability at 10 µM (NCI-H522): 85.2%
- viability at 10 µM (ACHN): 74.9%
- viability at 10 µM (MDA-MB-468): 59.2%
- viability at 10 µM (RPMI-8226): 87.2%
- viability at 10 µM (OVCAR-5): 141%
- viability at 10 µM (SR): 99.8%
- viability at 10 µM (DU-145): 81.2%
- viability at 10 µM (NCI-H23): 105%
- viability at 10 µM (A549): 76.3%
- viability at 10 µM (KM12): 89%
- viability at 10 µM (TK-10): 95.9%
- viability at 10 µM (786-0): 62.5%
- viability at 10 µM (SF-268): 71%
- viability at 10 µM (NCI/ADR-RES): 78.8%
- viability at 10 µM (CCRF-CEM): 75.9%
- viability at 10 µM (SK-MEL-28): 106%
- viability at 10 µM (NCI-H460): 95.2%
- viability at 10 µM (MDA-MB-231): 120%
- viability at 10 µM (SNB-75): 83.9%
